Here are results for one compound from ChEMBL document CHEMBL1143403, “Location of persisting mycobacteria in a Guinea pig model of tuberculosis revealed by r207910” (2007).

The subject of assay [1] is Mycobacterium tuberculosis. The format is functional. To be noted: dose 5 mg/kg; route oral.
Assay [2] deals with Mycobacterium tuberculosis. The format is functional, Spleen. To be noted: dose 10 mg/kg; route oral.
Assay [3] has as its system Mycobacterium tuberculosis. The format is functional. The settings on record: dose 10 mg/kg; route oral.
For assay [4], the system named is Mycobacterium tuberculosis. The format is functional, Spleen. The settings on record: dose 15 mg/kg; route oral.
The test system of assay [5] is Mycobacterium tuberculosis. The format is functional, Spleen. The settings on record: dose 5 mg/kg; route oral.
Assay [6] deals with Mycobacterium tuberculosis. The format is functional. To be noted: dose 15 mg/kg; route oral.

In the case of `COc1nc2ccc(Br)cc2cc1[C@@H](c1ccccc1)[C@](O)(CCN(C)C)c1cccc(F)c1`, the CFU was 358 in assay [1], 251 in assay [3] and 46 in assay [6]. Besides, the log10cfu in assay [1] came to 2.27; in assay [2], 0.46; in assay [3] it was 1.29; in assay [4], 0.98; in assay [5], 0.54; in assay [6], 0.93.
